Measurements: patent publication US6773803B2, “Far-infrared emission powder with antibacterial activity and bio-wave steel plate coated with resin containing same” (Posco, priority 2000, dated 2004)

Assay: pH of aqueous solution after adding 30 g powder to 100 g water
Type: physicochemical
Conditions: powder dissolved in distilled water, result in words
Protocol: After the addition of the alkaline oxides or hydroxides, the aqueous solutions were measured for pH and the results are given in Table 1.

Compound | influence on the pH of the distilled water
O=[Si]=O [Material No. C. 3, SiO2] | no influence on the pH
[O]=[Ti]=[O] [Material No. C. 1, TiO2] | no influence on the pH
[O]=[Al][O][Al]=[O] [Material No. C. 2, Al2O3] | no influence on the pH
